Our source for the IC50 values is patent US11339130B1 (Blade Therapeutics, Inc., priority 2016, dated 2022).

One assay concerns the target T1, Human Calpain 1/NS1 (Homo sapiens, UniProt P07384).
T1 sequence (P07384 1-714): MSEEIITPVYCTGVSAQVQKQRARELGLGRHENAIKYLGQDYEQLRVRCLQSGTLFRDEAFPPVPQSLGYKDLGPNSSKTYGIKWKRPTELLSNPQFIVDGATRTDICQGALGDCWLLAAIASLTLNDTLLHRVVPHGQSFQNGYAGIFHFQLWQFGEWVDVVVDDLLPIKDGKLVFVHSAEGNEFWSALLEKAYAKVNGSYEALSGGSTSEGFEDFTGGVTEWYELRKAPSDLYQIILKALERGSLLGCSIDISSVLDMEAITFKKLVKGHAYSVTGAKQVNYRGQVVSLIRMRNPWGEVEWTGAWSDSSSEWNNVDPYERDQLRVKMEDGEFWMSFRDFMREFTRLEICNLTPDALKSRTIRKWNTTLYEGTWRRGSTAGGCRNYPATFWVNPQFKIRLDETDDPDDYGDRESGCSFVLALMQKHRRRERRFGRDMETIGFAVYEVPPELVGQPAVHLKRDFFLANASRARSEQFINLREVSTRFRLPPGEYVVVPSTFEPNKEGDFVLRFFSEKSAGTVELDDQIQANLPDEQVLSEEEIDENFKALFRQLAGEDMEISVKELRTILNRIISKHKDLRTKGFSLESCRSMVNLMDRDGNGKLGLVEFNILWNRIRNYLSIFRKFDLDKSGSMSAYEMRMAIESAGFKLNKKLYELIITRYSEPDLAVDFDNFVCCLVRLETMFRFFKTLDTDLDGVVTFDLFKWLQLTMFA
T1 sequence (P04632 1-268 partner): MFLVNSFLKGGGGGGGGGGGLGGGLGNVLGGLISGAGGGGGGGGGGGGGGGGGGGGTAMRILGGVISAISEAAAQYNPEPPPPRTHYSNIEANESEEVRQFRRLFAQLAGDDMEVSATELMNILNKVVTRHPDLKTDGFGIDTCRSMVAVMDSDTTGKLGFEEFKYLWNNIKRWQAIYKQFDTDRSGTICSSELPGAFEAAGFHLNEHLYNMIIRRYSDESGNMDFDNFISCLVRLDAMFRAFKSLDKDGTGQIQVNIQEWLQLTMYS
In words: Calpain inhibition continuous fluorescence (FRET) assay, Human Calpain 1/NS1. The assay is classed as biochemical. To be noted: read-out: Human Calpain 1/NS1 IC50. The method in brief: (§1)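 Fluorescence increase from the cleaved 5-FAM/QXL 520 substrate, read at 490/520 nm, gave activity. Calcium was supplied with the substrate to activate the enzyme in situ after a 25C enzyme-inhibitor preincubation, and IC50s were fit from initial slopes.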

A further assay has as its target T2, Human Calpain 2/NS1 (Homo sapiens, UniProt P17655).
T2 sequence (P17655 1-700): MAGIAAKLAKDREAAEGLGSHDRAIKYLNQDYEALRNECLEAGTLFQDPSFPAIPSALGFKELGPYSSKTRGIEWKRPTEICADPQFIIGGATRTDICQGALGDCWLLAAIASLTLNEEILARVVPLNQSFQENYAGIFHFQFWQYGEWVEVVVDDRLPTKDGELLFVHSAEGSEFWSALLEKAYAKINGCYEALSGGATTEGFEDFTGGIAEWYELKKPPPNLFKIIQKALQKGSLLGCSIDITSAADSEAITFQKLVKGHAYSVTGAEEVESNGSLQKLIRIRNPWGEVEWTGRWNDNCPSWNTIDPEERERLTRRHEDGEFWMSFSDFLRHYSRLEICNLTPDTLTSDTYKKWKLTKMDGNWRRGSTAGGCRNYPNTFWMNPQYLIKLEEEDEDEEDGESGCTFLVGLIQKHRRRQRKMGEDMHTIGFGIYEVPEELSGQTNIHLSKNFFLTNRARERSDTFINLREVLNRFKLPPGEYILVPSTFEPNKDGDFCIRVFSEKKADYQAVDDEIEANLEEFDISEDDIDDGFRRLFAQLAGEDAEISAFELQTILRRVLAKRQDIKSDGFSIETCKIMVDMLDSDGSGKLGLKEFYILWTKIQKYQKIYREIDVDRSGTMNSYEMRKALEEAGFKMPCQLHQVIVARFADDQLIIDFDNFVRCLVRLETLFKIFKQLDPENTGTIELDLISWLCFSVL
T2 sequence (P04632 1-268 partner): T1 sequence (P04632 1-268 partner)
In words: Calpain inhibition continuous fluorescence (FRET) assay, Human Calpain 2/NS1. It is filed as biochemical. To be noted: read-out: Human Calpain 2/NS1 IC50. Put shortly:
as §1

The next assay addresses T3, Human Calpain 9/NS1 (Homo sapiens, UniProt O14815).
T3 sequence (O14815 1-690): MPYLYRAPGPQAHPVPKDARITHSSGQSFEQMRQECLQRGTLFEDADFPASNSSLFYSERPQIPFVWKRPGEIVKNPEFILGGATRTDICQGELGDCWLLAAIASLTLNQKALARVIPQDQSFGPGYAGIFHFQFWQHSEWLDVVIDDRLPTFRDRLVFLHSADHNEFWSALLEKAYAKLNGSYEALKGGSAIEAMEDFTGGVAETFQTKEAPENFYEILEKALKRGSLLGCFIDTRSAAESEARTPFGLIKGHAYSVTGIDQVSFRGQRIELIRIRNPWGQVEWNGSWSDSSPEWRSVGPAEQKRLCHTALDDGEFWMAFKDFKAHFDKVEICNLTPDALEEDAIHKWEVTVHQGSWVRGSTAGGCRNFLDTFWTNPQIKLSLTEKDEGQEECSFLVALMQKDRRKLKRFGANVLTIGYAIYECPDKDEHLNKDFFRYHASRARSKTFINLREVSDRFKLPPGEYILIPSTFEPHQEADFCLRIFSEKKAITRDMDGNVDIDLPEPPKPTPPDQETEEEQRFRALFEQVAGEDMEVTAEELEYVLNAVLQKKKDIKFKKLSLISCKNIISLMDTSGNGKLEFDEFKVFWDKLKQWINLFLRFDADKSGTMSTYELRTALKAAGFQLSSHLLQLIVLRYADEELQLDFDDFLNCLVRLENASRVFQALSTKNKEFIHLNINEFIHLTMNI
T3 sequence (P04632 1-268 partner): T1 sequence (P04632 1-268 partner)
In words: Calpain inhibition continuous fluorescence (FRET) assay, Human Calpain 9/NS1. The assay is classed as biochemical. To be noted: read-out: Human Calpain 9/NS1 IC50. Put shortly:
as §1

Assay [1] has as its system Calpain activity in SH-SY5Y cells (SBDP-150). In words: SH-SY5Y Spectrin western blot assay (SBDP-150 breakdown product, A23187-induced). It is filed as cell-based. To be noted: Homo sapiens; SH-SY5Y cells, A23187-induced SBDP-150, western blot; read-out: SH-SY5Y Spectrin IC50. A general note: Immunoblotting shows a protein as a band on a membrane.
In assay [2] the test system is Calpain activity in SH-SY5Y cells. In words: SH-SY5Y + AMC fluorescence assay (Suc-LLVY-AMC substrate). The settings on record: read-out: SH-SY5Y + AMC IC50. It is filed as cell-based.

Consider `Cc1nc(-c2ccccc2)c(C(=O)N[C@@H](Cc2ccc(O)cc2)C(=O)C(N)=O)o1` [Compound 354], for which the IC50 on Human Calpain 1/NS1 was less than 3 µM; on Human Calpain 2/NS1 it was less than 3 µM; at Human Calpain 9/NS1 it was less than 3 µM; in assay [1] it was less than 10 µM; in assay [2] it was less than 10 µM.
For the compound `Cc1nc(-c2cnc3ccccc3n2)c(C(=O)NC(Cc2ccccc2)C(=O)C(N)=O)o1` (centres unmarked) [Compound 356, N-(4-amino-3,4-dioxo-1-phenylbutan-2-yl)-2-methyl-4-(quinoxalin-2-yl)oxazole-5-carboxamide], the IC50 was less than 3 µM on Human Calpain 1/NS1; less than 3 µM at Human Calpain 2/NS1; less than 3 µM at Human Calpain 9/NS1; greater than 25 µM in assay [1]; greater than 25 µM in assay [2].
In the case of `NC(=O)C(=O)C(Cc1ccccc1)NC(=O)c1oc(C(F)(F)F)nc1-c1ccccc1F` (centres unmarked) [Compound 358, N-(4-amino-3,4-dioxo-1-phenylbutan-2-yl)-4-(2-fluorophenyl)-2-(trifluoromethyl)oxazole-5-carboxamide], the IC50 at Human Calpain 1/NS1 was less than 3 µM; at Human Calpain 2/NS1 it was less than 3 µM; on Human Calpain 9/NS1, less than 3 µM; in assay [1], 10 to 25 µM; in assay [2] it was less than 10 µM.
As to `Cc1nc(-c2ccccc2)c(C(=O)N[C@@H](Cc2ccccc2)C(O)C(N)=O)o1` (stereo partly drawn) [Compound 360, N-((2S)-4-amino-3-hydroxy-4-oxo-1-phenylbutan-2-yl)-2-methyl-4-phenyloxazole-5-carboxamide], the IC50 at Human Calpain 1/NS1 was greater than 10 µM; at Human Calpain 2/NS1, greater than 10 µM; at Human Calpain 9/NS1, greater than 10 µM; in assay [1] it was greater than 25 µM; in assay [2], greater than 25 µM.
Turning to `Cc1nc(-c2cccc(F)c2F)c(C(=O)NC(Cc2ccccc2)C(=O)C(N)=O)o1` (centres unmarked) [Compound 361, N-(4-amino-3,4-dioxo-1-phenylbutan-2-yl)-4-(2,3-difluorophenyl)-2-methyloxazole-5-carboxamide], the IC50 at Human Calpain 1/NS1 is less than 3 µM; at Human Calpain 2/NS1, less than 3 µM; at Human Calpain 9/NS1 it was less than 3 µM; in assay [1], less than 10 µM; in assay [2], less than 10 µM.
On to `C#CCOCc1ccc(-c2nsnc2C(=O)N[C@@H](Cc2ccccc2)C(=O)CF)cc1` [Compound 362, (S)—N-(4-fluoro-3-oxo-1-phenylbutan-2-yl)-4-(4-((prop-2-yn-1-yloxy)methyl)phenyl)-1,2,5-thiadiazole-3-carboxamide], for which the IC50 on Human Calpain 1/NS1 was less than 3 µM; at Human Calpain 2/NS1, less than 3 µM; on Human Calpain 9/NS1, less than 3 µM; in assay [1] it was less than 10 µM; in assay [2], greater than 25 µM.
Turning to `NC(=O)C(=O)C(Cc1ccccc1)NC(=O)c1nsnc1-c1ccc(CNC(=O)c2ccc(F)cc2)cc1` (centres unmarked) [Compound 363, N-(4-amino-3,4-dioxo-1-phenylbutan-2-yl)-4-(4-((4-fluorobenzamido)methyl)phenyl)-1,2,5-thiadiazole-3-carboxamide], the IC50 at Human Calpain 1/NS1 was less than 3 µM; on Human Calpain 2/NS1 it was less than 3 µM; at Human Calpain 9/NS1 it was less than 3 µM; in assay [1], less than 10 µM; in assay [2], greater than 25 µM.
For the compound `NC(=O)C(=O)C(Cc1ccccc1)NC(=O)c1nsnc1-c1cnccn1` (centres unmarked) [Compound 365, N-(4-amino-3,4-dioxo-1-phenylbutan-2-yl)-4-(pyrazin-2-yl)-1,2,5-thiadiazole-3-carboxamide], the IC50 was less than 3 µM at Human Calpain 1/NS1; less than 3 µM on Human Calpain 2/NS1; less than 3 µM at Human Calpain 9/NS1; less than 10 µM in assay [1]; less than 10 µM in assay [2].
In the case of `NC(=O)C(=O)C(Cc1ccccc1)NC(=O)c1nsnc1Br` (centres unmarked) [Compound 366, N-(4-amino-3,4-dioxo-1-phenylbutan-2-yl)-4-bromo-1,2,5-thiadiazole-3-carboxamide], the IC50 is less than 3 µM on Human Calpain 1/NS1; less than 3 µM on Human Calpain 2/NS1; less than 3 µM at Human Calpain 9/NS1; 10 to 25 µM in assay [1]; less than 10 µM in assay [2].
Turning to `NC(=O)C(=O)C(Cc1ccccc1)NC(=O)c1nsnc1-c1cccc2c1OCO2` (centres unmarked) [Compound 367, N-(4-amino-3,4-dioxo-1-phenylbutan-2-yl)-4-(benzo[d][1,3]dioxol-4-yl)-1,2,5-thiadiazole-3-carboxamide], the IC50 was less than 3 µM on Human Calpain 1/NS1; less than 3 µM at Human Calpain 2/NS1; less than 3 µM at Human Calpain 9/NS1; less than 10 µM in assay [1]; less than 10 µM in assay [2].
Consider `NC(=O)C(=O)C(Cc1ccccc1)NC(=O)c1nsnc1-c1cccc(COCc2ccccc2)c1` (centres unmarked) [Compound 370, N-(4-amino-3,4-dioxo-1-phenylbutan-2-yl)-4-(3-((benzyloxy)methyl)phenyl)-1,2,5-thiadiazole-3-carboxamide], for which the IC50 is less than 3 µM at Human Calpain 1/NS1; less than 3 µM at Human Calpain 2/NS1; less than 3 µM on Human Calpain 9/NS1; 10 to 25 µM in assay [1]; greater than 25 µM in assay [2].
For `NC(=O)C(=O)C(Cc1ccccc1)NC(=O)c1nsnc1-c1ccncc1` (centres unmarked) [Compound 371, N-(4-amino-3,4-dioxo-1-phenylbutan-2-yl)-4-(pyridin-4-yl)-1,2,5-thiadiazole-3-carboxamide], the IC50 was less than 3 µM on Human Calpain 1/NS1; less than 3 µM on Human Calpain 2/NS1; less than 3 µM at Human Calpain 9/NS1; less than 10 µM in assay [1]; less than 10 µM in assay [2].
Consider `NC(=O)C(=O)C(Cc1ccccc1)NC(=O)c1nsnc1-c1cccc(F)c1F` (centres unmarked) [Compound 372, N-(4-amino-3,4-dioxo-1-phenylbutan-2-yl)-4-(2,3-difluorophenyl)-1,2,5-thiadiazole-3-carboxamide], for which the IC50 was less than 3 µM at Human Calpain 1/NS1; less than 3 µM at Human Calpain 2/NS1; less than 3 µM on Human Calpain 9/NS1; less than 10 µM in assay [1]; less than 10 µM in assay [2].
